Data taken from patent US4024224A, “14-Aminodaunomycins, their preparation and use” (priority 1974, dated 1977).
Converted amounts (≈) assume the structure as drawn. Like-named read-outs stand apart in the source and are kept apart here.

Assays:
[1] = test system: Moloney Sarcoma Virus (MSV); assay: Inhibition of MSV-M foci formation in mouse embryo fibroblasts; assay type: cell-based; conditions: Fibroblast, 120 h; for IC50: read-out: MSV-M foci ID 50 (Inhibiting Dose 50%)
Method: (§1) Mouse embryo fibroblasts (MEF) were plated on 35 mm. Falcon plastic dishes and infected 24 hours later with Moloney Sarcoma Virus (MSV) in the presence of DEAE-dextran (25 μg./ml.). The samples were then treated for 3 days with different concentrations of the compounds of the invention. The number of foci of transformed cells was microscopically determined 5 days after the infection. Uninfected MEF were similarly treated and at the end of the experiment, the cells were counted in an haemocytometer. In all the experiments, the cells were incubated in a 5% CO2 incubator at 37° C.
(§2) For use in these tests the compounds were dissolved in distilled water or in 5% ethyl alcohol in distilled water and then diluted in culture medium.
The results of these tests are reported in Table I in terms of ID50 values (Inhibiting Dose 50%), calculated on dose-effects lines.

[2] = Proliferation of uninfected mouse embryo fibroblasts (MEF); assay type: cell-based; conditions: mouse, mouse embryo fibroblasts
Method: as §1, §2

[3] = test system: Mouse Embryo Fibroblasts; assay: as above; assay type: cell-based; conditions: Mus musculus, Fibroblast, 72 h, read-out: MEF No. of cells
Method: as §1, §2

[4] = Antitumor activity and toxicity on ascites Sarcoma 180 in CD 1 mice; assay type: in vivo; conditions: mouse, in vivo, ip, read-out: % Toxic Deaths
Method: (§3) The antitumor activity of the compounds of the invention was tested on ascites Sarcoma 180.
(§4) Three month old CD 1 mice were used. Sarcoma 180 ascites cells were inoculated intraperitoneally (10^6 cells/mouse). For use in these tests, the compounds were dissolved in distilled water or in 5% ethyl alcohol in distilled water, then diluted with Ringers solution and administered i.p. 1 day after the tumor implant (10 ml./kg. of body weight).
(§5) The toxicity of the test compounds was evaluated by macroscopic autoptic examination mainly in terms of reduction in spleen size. The comparison of the effectiveness of the test compounds is based on the maximum increase in median survival time, as compared to untreated controls, over the dose range used. The number of Long Term Survivors (LTS) refers to tumor-free mice at the end of the experiment (60 days). Solid Sarcoma 180 was implanted subcutaneously by trocar in the flank of CD 1 mice according to standard methods. The mice were treated i.v. for 5 consecutive days, starting 1 day after the tumor implant. On the 11th day the tumor volume was measured by means of a caliper and evaluated according to the formula (a^2 × b)/2, a and b being the minimum and the maximum diameters respectively.

[5] = test system: ascites Sarcoma 180; assay: as above; assay type: in vivo; conditions: for % LTS: 60 days; for LTS (Long Term Survivors after 60 days): survivors/total; for Toxic Deaths: deaths/total
Method: as §3, §4, §5

[6] = test system: Solid Sarcoma 180; assay: Antitumor activity and toxicity on solid Sarcoma 180 in CD 1 mice; assay type: in vivo; conditions: for Tumor Volume T/C %: 11th day; for Toxic Deaths: deaths/total
Method: as §5

[7] = 0.2 mg./kg. i.p. 1 day after tumor implant
[8] = 1 mg./kg. i.p. 1 day after tumor implant
[9] = 5 mg./kg. i.p. 1 day after tumor implant
[10] = 25 mg./kg. i.p. 1 day after tumor implant
[11] = 50 mg./kg. i.p. 1 day after tumor implant
[12] = 100 mg./kg. i.p. 1 day after tumor implant
[13] = 3 mg./kg. i.v. for 5 consecutive days
[14] = 4 mg./kg. i.v. for 5 consecutive days
[15] = 5 mg./kg. i.v. for 5 consecutive days

COc1cccc2c1C(=O)c1c(O)c3c(c(O)c1C2=O)C[C@@](O)(C(=O)CN1CCOCC1)C[C@@H]3O[C@H]1C[C@H](N)[C@H](O)[C@H](C)O1 [14-(N-morpholino)-daunomycin]
IC50 ([1]; calculated on dose-effects lines, 3 days treatment): 0.032 µg/mL (≈ 0.0522 µM)
activity at 0.0062 µg/mL ([1]; dose 0.0062 μg/ml, 3 days treatment, foci counted 5 days after infection, read-out: MSV-M No. of foci): 78%
activity at 0.025 µg/mL ([1]; dose 0.0250 μg/ml, 3 days treatment, foci counted 5 days after infection, read-out: MSV-M No. of foci): 69%
activity at 0.1 µg/mL ([1]; dose 0.1 μg/ml, 3 days treatment, foci counted 5 days after infection, read-out: MSV-M No. of foci): 17%
activity at 0.4 µg/mL ([1]; dose 0.4 μg/ml, 3 days treatment, foci counted 5 days after infection, read-out: MSV-M No. of foci): 0%
IC50 at 72 h ([2]; calculated on dose-effects lines, uninfected MEF, 3 days treatment, read-out: MEF proliferation ID 50 (Inhibiting Dose 50%)): 0.5 µg/mL (≈ 0.816 µM)
activity at 0.0062 µg/mL ([3]; dose 0.0062 μg/ml, uninfected MEF, 3 days treatment): 81%
activity at 0.025 µg/mL ([3]; dose 0.0250 μg/ml, uninfected MEF, 3 days treatment): 68%
activity at 0.1 µg/mL ([3]; dose 0.1 μg/ml, uninfected MEF, 3 days treatment): 31%
activity at 0.4 µg/mL ([3]; dose 0.4 μg/ml, uninfected MEF, 3 days treatment): 21%
mortality ([4]; 0.2 mg./kg. i.p.): 0%
mortality ([4]; 1 mg./kg. i.p.): 0%
mortality ([4]; 5 mg./kg. i.p.): 0%
mortality ([4]; 25 mg./kg. i.p.): 0%
mortality ([4]; 50 mg./kg. i.p.): 14%
mortality ([4]; 100 mg./kg. i.p.): 85%
T/C (median survival time, % over untreated controls) [5, 7]: 103%
% LTS [5, 7]: 0%
LTS (Long Term Survivors after 60 days) [5, 7]: 0/10
Toxic Deaths ([5]; 0.2 mg./kg. i.p.): 0/10
T/C (median survival time, % over untreated controls) [5, 8]: 111%
% LTS [5, 8]: 0%
LTS (Long Term Survivors after 60 days) [5, 8]: 0/10
Toxic Deaths ([5]; 1 mg./kg. i.p.): 0/10
T/C (median survival time, % over untreated controls) [5, 9]: 133%
% LTS [5, 9]: 30%
LTS (Long Term Survivors after 60 days) [5, 9]: 3/10
Toxic Deaths ([5]; 5 mg./kg. i.p.): 0/10
T/C (median survival time, % over untreated controls) [5, 10]: 223%
% LTS [5, 10]: 29%
LTS (Long Term Survivors after 60 days) [5, 10]: 5/17
Toxic Deaths ([5]; 25 mg./kg. i.p.): 0/17
T/C (median survival time, % over untreated controls) [5, 11]: 100%
% LTS [5, 11]: 0%
LTS (Long Term Survivors after 60 days) [5, 11]: 0/7
Toxic Deaths ([5]; 50 mg./kg. i.p.): 1/7
T/C (median survival time, % over untreated controls) [5, 12]: 50%
% LTS [5, 12]: 14%
LTS (Long Term Survivors after 60 days) [5, 12]: 1/7
Toxic Deaths ([5]; 100 mg./kg. i.p.): 6/7
Tumor Volume T/C % [6, 13]: 77%
Toxic Deaths [6, 13]: 0/10
Tumor Volume T/C % [6, 14]: 64%
Toxic Deaths [6, 14]: 0/10
Tumor Volume T/C % [6, 15]: 69%
Toxic Deaths [6, 15]: 0/10

COc1cccc2c1C(=O)c1c(O)c3c(c(O)c1C2=O)C[C@@](O)(C(C)=O)C[C@@H]3O[C@H]1C[C@H](N)[C@H](O)[C@H](C)O1 [Daunomycin]
activity at 0.0062 µg/mL ([1]; read-out: MSV-M No. of foci): 51%
activity at 0.0125 µg/mL ([1]; read-out: MSV-M No. of foci): 17%
activity at 0.025 µg/mL ([1]; read-out: MSV-M No. of foci): 0%
IC50 [1]: 0.006 µg/mL (≈ 0.0114 µM)
IC50 at 72 h [2]: 0.0086 µg/mL (≈ 0.0163 µM)
activity at 0.0062 µg/mL [3]: 55%
activity at 0.0125 µg/mL [3]: 45%
activity at 0.025 µg/mL [3]: 22%
mortality ([4]; 0.2 mg./kg. i.p.): 0%
mortality ([4]; 1 mg./kg. i.p.): 0%
mortality ([4]; 5 mg./kg. i.p.): 15%
T/C (median survival time, % over untreated controls) [5, 7]: 106%
% LTS [5, 7]: 5%
LTS (Long Term Survivors after 60 days) [5, 7]: 1/20
Toxic Deaths ([5]; 0.2 mg./kg. i.p.): 0/20
T/C (median survival time, % over untreated controls) [5, 8]: 193%
% LTS [5, 8]: 45%
LTS (Long Term Survivors after 60 days) [5, 8]: 9/20
Toxic Deaths ([5]; 1 mg./kg. i.p.): 0/20
T/C (median survival time, % over untreated controls) [5, 9]: 173%
% LTS [5, 9]: 15%
LTS (Long Term Survivors after 60 days) [5, 9]: 3/20
Toxic Deaths ([5]; 5 mg./kg. i.p.): 3/20
